Assay results taken from ChEMBL document CHEMBL1255299, “Killing of Neisseria gonorrhoeae, Streptococcus agalactiae (group B streptococcus), Haemophilus ducreyi, and vaginal Lactobacillus by 3-O-octyl-sn-glycerol” (2008).
Active and inactive are the calls of the source. The rule behind the calls is not given here.

Tests used:
Lactobacillus crispatus [1] = assay: Antimicrobial activity against Lactobacillus crispatus ATCC 33197 at 4.4 mM in presence of 0.7 mM human serum albumin; format: functional
Neisseria gonorrhoeae [2] = assay: Antimicrobial activity against Neisseria gonorrhoeae ATCC 49226 at 4.4 mM in presence of 0.7 mM human serum albumin; format: functional, organism-based
Lactobacillus crispatus [3] = assay: Antimicrobial activity against Lactobacillus crispatus ATCC 20225 at 4.4 mM in presence of 0.4 mM human serum albumin; format: functional
Neisseria gonorrhoeae [4] = assay: Microbicidal activity against Neisseria gonorrhoeae ATCC 19424 after 30 mins; format: functional; details: ATCC 19424, 0.5 h
Neisseria gonorrhoeae [5] = assay: Microbicidal activity against Neisseria gonorrhoeae ATCC 49226 after 30 mins; format: functional; details: ATCC 49226, 0.5 h
Lactobacillus crispatus [6] = assay: Antimicrobial activity against Lactobacillus crispatus ATCC 20225 at 4.4 mM in presence of 0.3 mM human serum albumin; format: functional
Pseudomonas aeruginosa [7] = assay: Antimicrobial activity against Pseudomonas aeruginosa at 4.4 mM in presence of 0.2 mM human serum albumin; format: functional, organism-based
Lactobacillus jensenii [8] = assay: Antimicrobial activity against Lactobacillus jensenii ATCC 25258 at 4.4 mM in presence of 0.2 mM human serum albumin; format: functional
Streptococcus agalactiae [9] = assay: Microbicidal activity against Streptococcus agalactiae serotype II after 30 mins; format: functional; details: 0.5 h
Neisseria gonorrhoeae [10] = assay: Antimicrobial activity against Neisseria gonorrhoeae ATCC 49226 at 4.4 mM in presence of 0.5 mM human serum albumin; format: functional, organism-based
Streptococcus agalactiae [11] = assay: Microbicidal activity against Streptococcus agalactiae serotype 1A after 30 mins; format: functional; details: serotype IA, 0.5 h
Lactobacillus iners = assay: Microbicidal activity against Lactobacillus iners after 30 mins; format: functional
Lactobacillus crispatus [12] = assay: Antimicrobial activity against Lactobacillus crispatus ATCC 20225 at 4.4 mM in presence of 0.1 mM human serum albumin; format: functional
Pseudomonas aeruginosa [13] = assay: Antimicrobial activity against Pseudomonas aeruginosa at 4.4 mM in presence of 0.5 mM human serum albumin; format: functional, organism-based
Lactobacillus crispatus [14] = assay: Microbicidal activity against Lactobacillus crispatus after 30 mins; format: functional; details: 0.5 h
Lactobacillus crispatus [15] = assay: Antimicrobial activity against Lactobacillus crispatus ATCC 33197 at 4.4 mM in presence of 0.6 mM human serum albumin; format: functional
Lactobacillus crispatus [16] = assay: Antimicrobial activity against Lactobacillus crispatus ATCC 33197 at 4.4 mM in presence of 0.4 mM human serum albumin; format: functional
Lactobacillus jensenii [17] = assay: Antimicrobial activity against Lactobacillus jensenii ATCC 25258 at 4.4 mM in presence of 0.05 mM human serum albumin; format: functional
Lactobacillus vaginalis = assay: Microbicidal activity against Lactobacillus vaginalis after 30 mins; format: functional
Lactobacillus crispatus [18] = assay: Antimicrobial activity against Lactobacillus crispatus ATCC 20225 at 4.4 mM in presence of 0.2 mM human serum albumin; format: functional
Lactobacillus jensenii [19] = assay: Antimicrobial activity against Lactobacillus jensenii ATCC 25258 at 4.4 mM in presence of 0.7 mM human serum albumin; format: functional
Pseudomonas aeruginosa [20] = assay: Antimicrobial activity against Pseudomonas aeruginosa at 4.4 mM in presence of 0.4 mM delipidated human serum albumin; format: functional, organism-based
Neisseria gonorrhoeae [21] = assay: Antimicrobial activity against Neisseria gonorrhoeae ATCC 49226 at 4.4 mM in presence of 0.05 mM human serum albumin; format: functional, organism-based
Neisseria gonorrhoeae [22] = assay: Antimicrobial activity against Neisseria gonorrhoeae ATCC 49226 at 4.4 mM in presence of 0.2 mM human serum albumin; format: functional, organism-based
Lactobacillus crispatus [23] = assay: Antimicrobial activity against Lactobacillus crispatus ATCC 33197 at 4.4 mM in presence of 0.05 mM human serum albumin; format: functional
Pseudomonas aeruginosa [24] = assay: Antimicrobial activity against Pseudomonas aeruginosa at 4.4 mM in presence of 0.3 mM delipidated human serum albumin; format: functional, organism-based
Pseudomonas aeruginosa [25] = assay: Antimicrobial activity against Pseudomonas aeruginosa at 4.4 mM in presence of 0.6 mM delipidated human serum albumin; format: functional, organism-based
Pseudomonas aeruginosa [26] = assay: Antimicrobial activity against Pseudomonas aeruginosa at 4.4 mM in presence of 0.1 mM delipidated human serum albumin; format: functional, organism-based
Lactobacillus crispatus [27] = assay: Antimicrobial activity against Lactobacillus crispatus ATCC 33197 at 4.4 mM in presence of 0.2 mM human serum albumin; format: functional
Pseudomonas aeruginosa [28] = assay: Antimicrobial activity against Pseudomonas aeruginosa at 4.4 mM in presence of 0.6 mM human serum albumin; format: functional, organism-based
Lactobacillus crispatus [29] = assay: Antimicrobial activity against Lactobacillus crispatus ATCC 20225 at 4.4 mM in presence of 0.05 mM human serum albumin; format: functional
Streptococcus agalactiae [30] = assay: Microbicidal activity against Streptococcus agalactiae serotype V after 30 mins; format: functional; details: 0.5 h
Pseudomonas aeruginosa [31] = assay: Antimicrobial activity against Pseudomonas aeruginosa at 4.4 mM in presence of 0.3 mM human serum albumin; format: functional, organism-based
Streptococcus agalactiae [32] = assay: Microbicidal activity against Streptococcus agalactiae serotype III after 30 mins; format: functional; details: 0.5 h
Pseudomonas aeruginosa [33] = assay: Antimicrobial activity against Pseudomonas aeruginosa at 4.4 mM in presence of 0.4 mM human serum albumin; format: functional, organism-based
Lactobacillus crispatus [34] = assay: Antimicrobial activity against Lactobacillus crispatus ATCC 20225 at 4.4 mM in presence of 0.5 mM human serum albumin; format: functional
Lactobacillus jensenii [35] = assay: Microbicidal activity against Lactobacillus jensenii after 30 mins; format: functional; details: 0.5 h
Lactobacillus crispatus [36] = assay: Antimicrobial activity against Lactobacillus crispatus ATCC 20225 at 4.4 mM in presence of 0.6 mM human serum albumin; format: functional
Streptococcus agalactiae [37] = assay: Microbicidal activity against Streptococcus agalactiae serotype 1B after 30 mins; format: functional; details: 0.5 h
Pseudomonas aeruginosa [38] = assay: Antimicrobial activity against Pseudomonas aeruginosa at 4.4 mM in presence of 0.2 mM delipidated human serum albumin; format: functional, organism-based
Pseudomonas aeruginosa [39] = assay: Antimicrobial activity against Pseudomonas aeruginosa at 4.4 mM in presence of 0.1 mM human serum albumin; format: functional, organism-based
Streptococcus agalactiae [40] = assay: Microbicidal activity against Streptococcus agalactiae serotype IV after 30 mins; format: functional; details: 0.5 h
Lactobacillus jensenii [41] = assay: Antimicrobial activity against Lactobacillus jensenii ATCC 25258 at 4.4 mM in presence of 0.3 mM human serum albumin; format: functional
Lactobacillus jensenii [42] = assay: Antimicrobial activity against Lactobacillus jensenii ATCC 25258 at 4.4 mM in presence of 0.6 mM human serum albumin; format: functional
[Haemophilus] ducreyi = Microbicidal activity against Haemophilus ducreyi after 30 mins; format: functional; details: 0.5 h
Lactobacillus crispatus [43] = assay: Antimicrobial activity against Lactobacillus crispatus ATCC 20225 at 4.4 mM in presence of 0.7 mM human serum albumin; format: functional
Lactobacillus crispatus [44] = assay: Antimicrobial activity against Lactobacillus crispatus ATCC 33197 at 4.4 mM in presence of 0.3 mM human serum albumin; format: functional
Neisseria gonorrhoeae [45] = assay: Antimicrobial activity against Neisseria gonorrhoeae ATCC 49226 at 4.4 mM in presence of 0.1 mM human serum albumin; format: functional, organism-based
Lactobacillus jensenii [46] = assay: Antimicrobial activity against Lactobacillus jensenii ATCC 25258 at 4.4 mM in presence of 0.1 mM human serum albumin; format: functional
Lactobacillus jensenii [47] = assay: Antimicrobial activity against Lactobacillus jensenii ATCC 25258 at 4.4 mM in presence of 0.4 mM human serum albumin; format: functional
Lactobacillus jensenii [48] = assay: Antimicrobial activity against Lactobacillus jensenii ATCC 25258 at 4.4 mM in presence of 0.5 mM human serum albumin; format: functional
Neisseria gonorrhoeae [49] = assay: Antimicrobial activity against Neisseria gonorrhoeae ATCC 49226 at 4.4 mM in presence of 0.6 mM human serum albumin; format: functional, organism-based
Neisseria gonorrhoeae [50] = assay: Antimicrobial activity against Neisseria gonorrhoeae ATCC 49226 at 4.4 mM in presence of 0.3 mM human serum albumin; format: functional, organism-based
Pseudomonas aeruginosa [51] = assay: Antimicrobial activity against Pseudomonas aeruginosa at 4.4 mM in presence of 0.5 mM delipidated human serum albumin; format: functional, organism-based
Lactobacillus crispatus [52] = assay: Antimicrobial activity against Lactobacillus crispatus ATCC 33197 at 4.4 mM in presence of 0.5 mM human serum albumin; format: functional
Neisseria gonorrhoeae [53] = assay: Antimicrobial activity against Neisseria gonorrhoeae ATCC 49226 at 4.4 mM in presence of 0.4 mM human serum albumin; format: functional, organism-based
Lactobacillus crispatus [54] = assay: Antimicrobial activity against Lactobacillus crispatus ATCC 33197 at 4.4 mM in presence of 0.1 mM human serum albumin; format: functional

In the case of `CCCCCCCCOC[C@H](O)CO`, the Activity (Lactobacillus crispatus [1]) is reported as “inactive”, the Activity (Neisseria gonorrhoeae [2]) is reported as “inactive” and the Activity (Lactobacillus crispatus [3]) is reported as “inactive”. The MCC (Neisseria gonorrhoeae [4]) was 2.5 mM, the MCC (Neisseria gonorrhoeae [5]) was 2.5 mM and the Activity (Lactobacillus crispatus [6]) was “inactive”. The Activity (Pseudomonas aeruginosa [7]) was “Active”, the Activity (Lactobacillus jensenii [8]) was “Active” and the MCC (Streptococcus agalactiae [9]) was 5 mM. The Activity (Neisseria gonorrhoeae [10]) was “Active”, the MCC (Streptococcus agalactiae [11]) was 5 mM and the MCC (Lactobacillus iners) was 5 mM. For the same compound, the Activity (Lactobacillus crispatus [12]) was “Active”, the Activity (Pseudomonas aeruginosa [13]) was “inactive” and the MCC (Lactobacillus crispatus [14]) was 5 mM. For the same compound, the Activity (Lactobacillus crispatus [15]) was “inactive”, the Activity (Lactobacillus crispatus [16]) was “inactive” and the Activity (Lactobacillus jensenii [17]) was “Active”. The MCC (Lactobacillus vaginalis) was greater than 10 mM, the Activity (Lactobacillus crispatus [18]) was “Active” and the Activity (Lactobacillus jensenii [19]) was “inactive”. The Activity (Pseudomonas aeruginosa [20]) was “inactive”, the Activity (Neisseria gonorrhoeae [21]) was “Active” and the Activity (Neisseria gonorrhoeae [22]) was “Active”. For the same compound, the Activity (Lactobacillus crispatus [23]) was “Active”, the Activity (Pseudomonas aeruginosa [24]) was “inactive” and the Activity (Pseudomonas aeruginosa [25]) was “inactive”. For the same compound, the Activity (Pseudomonas aeruginosa [26]) was “Active”, the Activity (Lactobacillus crispatus [27]) was “Active” and the Activity (Pseudomonas aeruginosa [28]) was “inactive”. For the same compound, the Activity (Lactobacillus crispatus [29]) was “Active”, the MCC (Streptococcus agalactiae [30]) was 5 mM and the Activity (Pseudomonas aeruginosa [31]) was “Active”. The MCC (Streptococcus agalactiae [32]) was 5 mM, the Activity (Pseudomonas aeruginosa [33]) was “Active” and the Activity (Lactobacillus crispatus [34]) was “inactive”. For the same compound, the MCC (Lactobacillus jensenii [35]) was 5 mM, the Activity (Lactobacillus crispatus [36]) was “inactive” and the MCC (Streptococcus agalactiae [37]) was 5 mM. The Activity (Pseudomonas aeruginosa [38]) was “inactive”, the Activity (Pseudomonas aeruginosa [39]) was “Active” and the MCC (Streptococcus agalactiae [40]) was 5 mM. The Activity (Lactobacillus jensenii [41]) was “Active”, the Activity (Lactobacillus jensenii [42]) was “inactive” and the MCC ([Haemophilus] ducreyi) was 1.25 mM. For the same compound, the Activity (Lactobacillus crispatus [43]) was “inactive”, the Activity (Lactobacillus crispatus [44]) was “inactive” and the Activity (Neisseria gonorrhoeae [45]) was “Active”. For the same compound, the Activity (Lactobacillus jensenii [46]) was “Active”, the Activity (Lactobacillus jensenii [47]) was “inactive” and the Activity (Lactobacillus jensenii [48]) was “inactive”. For the same compound, the Activity (Neisseria gonorrhoeae [49]) was “Active”, the Activity (Neisseria gonorrhoeae [50]) was “Active” and the Activity (Pseudomonas aeruginosa [51]) was “inactive”. For the same compound, the Activity (Lactobacillus crispatus [52]) was “inactive”, the Activity (Neisseria gonorrhoeae [53]) was “Active” and the Activity (Lactobacillus crispatus [54]) was “Active”.
Compound `CCCCCCCCOC[C@@H](O)CO` has an MCC (Neisseria gonorrhoeae [4]) of 2.5 mM, an MCC (Neisseria gonorrhoeae [5]) of 2.5 mM and an MCC (Lactobacillus iners) of 4 mM. It also gave an MCC (Lactobacillus crispatus [14]) of 5 mM and an MCC (Lactobacillus jensenii [35]) of 3 mM.
